# Measurements: US20030186997A1, “2,5-Dihydro-pyrazolo[3,4-d]pyrimidin-4-ones with an anticonsulsive action and methods for producing the same” (priority 2000, published 2003)
row,Compound,melting point
1,"COc1ccccc1Cn1cnc2n[nH]cc2c1=O [Compound 7, 5-(2-methoxybenzyl)-2,5-dihydropyrazolo[3,4-d]-pyrimidin-4-one]",188 to 189 °C
2,"Cc1cc(C)c(Cn2cnc3n[nH]cc3c2=O)c(C)c1 [Compound 9, 5-(2,4,6-trimethylbenzyl)-2,5-dihydropyrazolo[3,4-d]-pyrimidin-4-one]",199 to 200 °C
3,"O=c1c2c[nH]nc2ncn1Cc1ccccn1 [Compound 10, 5-(2-pyridinylmethyl)-2,5-dihydropyrazolo[3,4-d]-pyrimidin-4-one]",224 to 225 °C
4,"O=c1c2c[nH]nc2ncn1Cc1cccnc1 [Compound 11, 5-(3-pyridinylmethyl)-2,5-dihydropyrazolo[3,4-d]-pyrimidin-4-one]",200 to 201 °C
5,"O=c1c2c[nH]nc2ncn1Cc1ccncc1 [Compound 12, 5-(4-pyridinylmethyl)-2,5-dihydropyrazolo[3,4-d]-pyrimidin-4-one]",220 to 221 °C
6,"Cc1cccc(Cn2cnc3nn(C)cc3c2=O)c1 [Compound 15, 5-(3-methylbenzyl)-2-methyl-2,5-dihydropyrazolo[3,4-d]-pyrimidin-4-one]",114 to 117 °C
7,"Cc1ccc(Cn2cnc3nn(C)cc3c2=O)cc1 [Compound 16, 5-(4-methylbenzyl)-2-methyl-2,5-dihydropyrazolo[3,4-d]-pyrimidin-4-one]",224 to 226 °C
8,"Cn1cc2c(=O)n(Cc3ccccc3Cl)cnc2n1 [Compound 18, 5-(2-chlorobenzyl)-2-methyl-2,5-dihydropyrazolo[3,4-d]-pyrimidin-4-one]",205 to 206 °C
9,"Cn1cc2c(=O)n(Cc3ccccc3C(F)(F)F)cnc2n1 [Compound 20, 5-(2-trifluoromethylbenzyl)-2-methyl-2,5-dihydropyrazolo[3,4-d]pyrimidin-4-one]",215 to 217 °C
10,"Cn1cc2c(=O)n(Cc3ccc(C(F)(F)F)cc3)cnc2n1 [Compound 22, 5-(4-trifluoromethylbenzyl)-2-methyl-2,5-dihydropyrazolo[3,4-d]pyrimidin-4-one]",211 to 212 °C
11,"Cn1cc2c(=O)n(Cc3c(F)cccc3Cl)cnc2n1 [Compound 23, 5-(2-chloro-6-fluorobenzyl)-2-methyl-2,5-dihydropyrazolo[3,4-d]pyrimidin-4-one]",216 to 218 °C
12,"Cn1cc2c(=O)n(Cc3ccccc3-c3ccccc3)cnc2n1 [Compound 24, 5-(2-phenylbenzyl)-2-methyl-2,5-dihydropyrazolo[3,4-d]-pyrimidin-4-one]",189 to 191 °C
13,"Cn1cc2c(=O)n(Cc3c(Cl)cccc3Cl)cnc2n1 [Compound 25, 5-(2,6-dichlorobenzyl)-2-methyl-2,5-dihydro-pyrazolo[3,4-d]pyrimidin-4-one]",200 to 202 °C
14,"Cn1cc2c(=O)n(Cc3ccccc3[N+](=O)[O-])cnc2n1 [Compound 26, 5-(2-nitrobenzyl)-2-methyl-2,5-dihydropyrazolo[3,4-d]-pyrimidin-4-one]",220 to 222 °C
15,"Cn1cc2c(=O)n(Cc3ccc(Cl)cc3)cnc2n1 [Compound 27, 5-(4-chlorobenzyl)-2-methyl-2,5-dihydropyrazolo[3,4-d]-pyrimidin-4-one]",209 to 210 °C
16,"Cn1cc2c(=O)n(Cc3ccc(Cl)cc3Cl)cnc2n1 [Compound 28, 5-(2,4-dichlorobenzyl)-2-methyl-2,5-dihydropyrazolo[3,4-d]pyrimidin-4-one]",218 to 219 °C
17,"Cn1cc2c(=O)n(Cc3ccccc3I)cnc2n1 [Compound 29, 5-(2-iodobenzyl)-2-methyl-2,5-dihydropyrazolo[3,4-d]-pyrimidin-4-one]",187 to 190 °C
18,"Cn1cc2c(=O)n(Cc3ccccc3C#N)cnc2n1 [Compound 30, 5-(2-cyanobenzyl)-2-methyl-2,5-dihydropyrazolo[3,4-d]-pyrimidin-4-one]",198 to 199 °C
19,"Cn1cc2c(=O)n(Cc3ccc(F)cc3)cnc2n1 [Compound 31, 5-(4-fluorobenzyl)-2-methyl-2,5-dihydropyrazolo[3,4-d]-pyrimidin-4-one]",216 to 217 °C
20,"Cc1cc(C)c(Cn2cnc3nn(C)cc3c2=O)c(C)c1 [Compound 32, 5-(2,4,6-trimethylbenzyl)-2-methyl-2,5-dihydropyrazolo[3,4-d]pyrimidin-4-one]",182 to 184 °C
21,"Cn1cc2c(=O)n(Cc3ccccn3)cnc2n1 [Compound 33, 5-(2-pyridinylmethyl)-2-methyl-2,5-dihydropyrazolo[3,4-d]-pyrimidin-4-one]",203 to 205 °C
22,"Cn1cc2c(=O)n(Cc3ccncc3)cnc2n1 [Compound 34, 5-(4-pyridinylmethyl)-2-methyl-2,5-dihydropyrazolo[3,4-d]-pyrimidin-4-one]",192 to 195 °C
23,"CCn1cc2c(=O)n(Cc3c(F)cccc3Cl)cnc2n1 [Compound 35, 5-(2-chloro-6-fluorobenzyl)-2-ethyl-2,5-dihydropyrazolo[3,4-d]pyrimidin-4-one]",207 to 209 °C

row,Compound,melting point
1,"CCn1cc2c(=O)n(Cc3ccc(C)cc3)cnc2n1 [Compound 36, 5-(4-methylbenzyl)-2-ethyl-2,5-dihydropyrazolo[3,4-d]-pyrimidin-4-one]",178 to 179 °C
2,"CCn1cc2c(=O)n(Cc3ccccn3)cnc2n1 [Compound 38, 5-(2-pyridinylmethyl)-2-ethyl-2,5-dihydropyrazolo[3,4-d]-pyrimidin-4-one]",190 to 191 °C
3,"CCCn1cc2c(=O)n(Cc3c(F)cccc3Cl)cnc2n1 [Compound 39, 5-(2-chloro-6-fluorobenzyl)-2-propyl-2,5-dihydropyrazolo[3,4-d]pyrimidin-4-one]",163 to 165 °C
4,"CCCn1cc2c(=O)n(Cc3ccc(C)cc3)cnc2n1 [Compound 40, 5-(4-methylbenzyl)-2-propyl-2,5-dihydropyrazolo[3,4-d]-pyrimidin-4-one]",157 to 158 °C
5,"CCCn1cc2c(=O)n(Cc3c(F)cccc3F)cnc2n1 [Compound 41, 5-(2,6-difluorobenzyl)-2-propyl-2,5-dihydropyrazolo[3,4-d]pyrimidin-4-one]",167 to 168 °C
6,"CCCn1cc2c(=O)n(Cc3ccccn3)cnc2n1 [Compound 42, 5-(2-pyridinylmethyl)-2-propyl-2,5-dihydropyrazolo[3,4-d]-pyrimidin-4-one]",179 to 181 °C
7,"Cc1ccc(Cn2cnc3nn(C(C)C)cc3c2=O)cc1 [Compound 44, 5-(4-methylbenzyl)-2-isopropyl-2,5-dihydropyrazolo[3,4-d]-pyrimidin-4-one]",145 to 147 °C
8,"CC(C)n1cc2c(=O)n(Cc3c(F)cccc3F)cnc2n1 [Compound 45, 5-(2,6-difluorobenzyl)-2-isopropyl-2,5-dihydropyrazolo[3,4-d]pyrimidin-4-one]",156 to 157 °C
9,"CC(C)n1cc2c(=O)n(Cc3ccccn3)cnc2n1 [Compound 46, 5-(2-pyridinylmethyl)-2-isopropyl-2,5-dihydropyrazolo[3,4-d]pyrimidin-4-one]",163 to 164 °C
10,"CCCCn1cc2c(=O)n(Cc3c(F)cccc3Cl)cnc2n1 [Compound 47, 5-(2-chloro-6-fluorobenzyl)-2-butyl-2,5-dihydropyrazolo[3,4-d]pyrimidin-4-one]",156 to 157 °C
11,"CCCCn1cc2c(=O)n(Cc3ccc(C)cc3)cnc2n1 [Compound 48, 5-(4-methylbenzyl)-2-butyl-2,5-dihydropyrazolo[3,4-d]-pyrimidin-4-one]",146 to 147 °C
12,"CCCCn1cc2c(=O)n(Cc3c(F)cccc3F)cnc2n1 [Compound 49, 5-(2,6-difluorobenzyl)-2-butyl-2,5-dihydropyrazolo[3,4-d]-pyrimidin-4-one]",151 to 152 °C
13,"O=c1c2cn(-c3ccccc3)nc2ncn1Cc1c(F)cccc1Cl [Compound 50, 5-(2-chloro-6-fluorobenzyl)-2-phenyl-2,5-dihydropyrazolo[3,4-d]pyrimidin-4-one]",195 to 197 °C
14,"Cc1ccc(Cn2cnc3nn(-c4ccccc4)cc3c2=O)cc1 [Compound 51, 5-(4-methylbenzyl)-2-phenyl-2,5-dihydropyrazolo[3,4-d]-pyrimidin-4-one]",182 to 183 °C
15,"O=c1c2cn(-c3ccccc3)nc2ncn1Cc1c(F)cccc1F [Compound 52, 5-(2,6-difluorobenzyl)-2-phenyl-2,5-dihydropyrazolo[3,4-d]pyrimidin-4-one]",189 to 191 °C
16,"O=c1c2cn(-c3ccccc3)nc2ncn1Cc1ccccn1 [Compound 53, 5-(2-pyridinylmethyl)-2-phenyl-2,5-dihydropyrazolo[3,4-d]-pyrimidin-4-one]",199 to 201 °C
17,"O=c1c2cn(Cc3ccccc3)nc2ncn1Cc1c(F)cccc1Cl [Compound 54, 5-(2-chloro-6-fluorobenzyl)-2-benzyl-2,5-dihydropyrazolo[3,4-d]pyrimidin-4-one]",176 to 177 °C
18,"Cc1ccc(Cn2cnc3nn(Cc4ccccc4)cc3c2=O)cc1 [Compound 55, 5-(4-methylbenzyl)-2-benzyl-2,5-dihydropyrazolo[3,4-d]-pyrimidin-4-one]",167 to 169 °C
19,"O=c1c2cn(Cc3ccccc3)nc2ncn1Cc1c(F)cccc1F [Compound 56, 5-(2,6-difluorobenzyl)-2-benzyl-2,5-dihydropyrazolo[3,4-d]pyrimidin-4-one]",173 to 174 °C
20,"O=c1c2cn(Cc3ccccc3)nc2ncn1Cc1ccccn1 [Compound 57, 5-(2-pyridinylmethyl)-2-benzyl-2,5-dihydropyrazolo[3,4-d]-pyrimidin-4-one]",182 to 184 °C
21,"O=c1c2cn(Cc3ccccn3)nc2ncn1Cc1c(F)cccc1F [Compound 59, 5-(2,6-difluorobenzyl)-2-pyridin-2-ylmethyl-2,5-dihydropyrazolo[3,4-d]pyrimidin-4-one]",174 to 175 °C
22,"Cc1nc2n[nH]cc2c(=O)n1Cc1ccccc1Cl [Compound 61, 5-(2-chlorobenzyl)-6-methyl-2,5-dihydropyrazolo[3,4-d]-pyrimidin-4-one]",222 to 224 °C
23,"Cc1nc2nn(C)cc2c(=O)n1Cc1ccccc1C(F)(F)F [Compound 63, 5-(2-trifluoromethylbenzyl)-2,6-dimethyl-2,5-dihydropyrazolo[3,4-d]pyrimidin-4-one]",192 to 193 °C
